Five molecules from ChEMBL document CHEMBL1149550, “5(Z)-benzylidene-1,2-dihydro-9-hydroxy-10-methoxy-2,2,4-trimethyl-5H-1-aza-6-oxa-chrysenes as non-steroidal glucocorticoid receptor modulators” (Bioorg Med Chem Lett, 2007) can be followed below.

pEC50, pIC50, pKi: −log10 of the molar value. Active and inactive are the calls of the source. The rule behind the calls is not given here.

One test has as its target T1, Progesterone receptor (Homo sapiens, UniProt P06401).
T1 sequence (P06401 whole entry): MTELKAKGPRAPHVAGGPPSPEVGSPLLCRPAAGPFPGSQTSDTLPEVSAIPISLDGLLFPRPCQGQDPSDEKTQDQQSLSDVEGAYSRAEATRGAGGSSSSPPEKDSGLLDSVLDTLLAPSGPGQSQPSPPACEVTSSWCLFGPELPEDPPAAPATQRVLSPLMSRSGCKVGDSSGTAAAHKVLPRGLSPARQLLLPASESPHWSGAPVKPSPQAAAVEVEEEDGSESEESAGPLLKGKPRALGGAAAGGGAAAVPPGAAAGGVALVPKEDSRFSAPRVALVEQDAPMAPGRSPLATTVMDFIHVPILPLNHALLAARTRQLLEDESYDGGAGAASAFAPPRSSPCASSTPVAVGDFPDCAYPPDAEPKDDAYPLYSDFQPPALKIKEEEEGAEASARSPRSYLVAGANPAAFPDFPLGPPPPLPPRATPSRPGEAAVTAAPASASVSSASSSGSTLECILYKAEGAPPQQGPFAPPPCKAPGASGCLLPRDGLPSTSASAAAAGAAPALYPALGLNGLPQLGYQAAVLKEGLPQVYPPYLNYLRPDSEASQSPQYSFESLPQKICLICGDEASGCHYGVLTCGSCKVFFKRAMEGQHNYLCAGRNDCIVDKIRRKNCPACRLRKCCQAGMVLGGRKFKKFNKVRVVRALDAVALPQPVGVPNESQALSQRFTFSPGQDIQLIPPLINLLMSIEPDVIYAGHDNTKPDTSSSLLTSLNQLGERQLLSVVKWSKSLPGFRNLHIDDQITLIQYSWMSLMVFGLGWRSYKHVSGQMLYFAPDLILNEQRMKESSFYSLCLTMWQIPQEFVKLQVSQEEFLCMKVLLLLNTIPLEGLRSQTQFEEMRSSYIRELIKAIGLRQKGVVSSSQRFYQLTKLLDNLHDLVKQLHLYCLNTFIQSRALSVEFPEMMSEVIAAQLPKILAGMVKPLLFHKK
The experiment in a line: Binding affinity at PR.

For a further test, the target named is T2, Androgen receptor (Homo sapiens, UniProt P10275).
T2 sequence (P10275 whole entry): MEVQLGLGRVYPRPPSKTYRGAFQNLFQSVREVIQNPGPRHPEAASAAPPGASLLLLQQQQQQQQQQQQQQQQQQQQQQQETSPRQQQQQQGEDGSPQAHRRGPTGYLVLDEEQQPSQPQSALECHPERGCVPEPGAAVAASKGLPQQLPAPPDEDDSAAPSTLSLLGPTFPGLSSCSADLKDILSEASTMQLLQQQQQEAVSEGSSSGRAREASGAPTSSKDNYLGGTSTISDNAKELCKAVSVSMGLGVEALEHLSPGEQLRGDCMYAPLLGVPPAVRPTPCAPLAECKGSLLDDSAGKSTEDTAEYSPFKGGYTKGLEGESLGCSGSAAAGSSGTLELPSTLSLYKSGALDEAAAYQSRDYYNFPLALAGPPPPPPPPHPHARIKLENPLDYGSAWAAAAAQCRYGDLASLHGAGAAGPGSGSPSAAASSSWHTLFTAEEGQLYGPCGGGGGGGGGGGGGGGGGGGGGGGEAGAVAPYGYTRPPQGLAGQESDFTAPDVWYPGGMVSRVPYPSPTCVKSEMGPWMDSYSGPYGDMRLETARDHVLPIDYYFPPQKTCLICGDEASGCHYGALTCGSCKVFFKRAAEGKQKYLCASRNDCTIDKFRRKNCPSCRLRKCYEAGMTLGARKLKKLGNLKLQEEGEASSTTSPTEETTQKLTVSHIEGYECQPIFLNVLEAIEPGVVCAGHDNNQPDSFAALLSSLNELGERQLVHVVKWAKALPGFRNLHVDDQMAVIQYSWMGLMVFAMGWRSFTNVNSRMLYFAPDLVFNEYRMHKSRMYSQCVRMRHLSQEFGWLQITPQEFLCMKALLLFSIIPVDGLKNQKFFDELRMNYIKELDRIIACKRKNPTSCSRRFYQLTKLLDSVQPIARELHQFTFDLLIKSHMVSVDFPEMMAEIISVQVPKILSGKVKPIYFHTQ
The experiment in a line: Binding affinity at AR.

Test [1] concerns the target T3, Mineralocorticoid receptor (Homo sapiens, UniProt P08235).
T3 sequence (P08235 whole entry): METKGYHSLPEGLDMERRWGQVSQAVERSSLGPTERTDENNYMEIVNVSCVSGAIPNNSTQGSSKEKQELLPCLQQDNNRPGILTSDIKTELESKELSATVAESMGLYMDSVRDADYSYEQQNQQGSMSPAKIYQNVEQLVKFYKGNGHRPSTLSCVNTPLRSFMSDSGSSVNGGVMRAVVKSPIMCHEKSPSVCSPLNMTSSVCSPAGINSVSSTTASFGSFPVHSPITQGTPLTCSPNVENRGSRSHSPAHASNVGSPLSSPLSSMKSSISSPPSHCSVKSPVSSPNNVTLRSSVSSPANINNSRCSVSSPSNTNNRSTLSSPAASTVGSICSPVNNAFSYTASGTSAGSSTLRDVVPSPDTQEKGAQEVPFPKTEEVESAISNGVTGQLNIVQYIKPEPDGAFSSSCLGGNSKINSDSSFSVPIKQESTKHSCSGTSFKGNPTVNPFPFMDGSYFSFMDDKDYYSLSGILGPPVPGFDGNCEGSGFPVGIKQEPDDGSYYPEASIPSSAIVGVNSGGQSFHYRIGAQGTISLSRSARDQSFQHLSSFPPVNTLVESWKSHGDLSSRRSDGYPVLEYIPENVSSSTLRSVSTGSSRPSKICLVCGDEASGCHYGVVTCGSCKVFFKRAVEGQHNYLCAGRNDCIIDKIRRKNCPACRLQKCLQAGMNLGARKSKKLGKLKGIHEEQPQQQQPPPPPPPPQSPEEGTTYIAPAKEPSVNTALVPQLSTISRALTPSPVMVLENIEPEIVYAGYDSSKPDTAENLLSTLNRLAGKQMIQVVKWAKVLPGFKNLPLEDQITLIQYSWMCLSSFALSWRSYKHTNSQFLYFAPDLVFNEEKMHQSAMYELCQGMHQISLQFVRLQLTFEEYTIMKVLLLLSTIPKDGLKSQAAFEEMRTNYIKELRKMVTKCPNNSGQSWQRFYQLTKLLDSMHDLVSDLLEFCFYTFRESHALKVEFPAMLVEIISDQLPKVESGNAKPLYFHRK
The experiment in a line: Binding affinity at MR.

Test [2] concerns the target T4, Glucocorticoid receptor (Homo sapiens, UniProt P04150).
T4 sequence (P04150 whole entry): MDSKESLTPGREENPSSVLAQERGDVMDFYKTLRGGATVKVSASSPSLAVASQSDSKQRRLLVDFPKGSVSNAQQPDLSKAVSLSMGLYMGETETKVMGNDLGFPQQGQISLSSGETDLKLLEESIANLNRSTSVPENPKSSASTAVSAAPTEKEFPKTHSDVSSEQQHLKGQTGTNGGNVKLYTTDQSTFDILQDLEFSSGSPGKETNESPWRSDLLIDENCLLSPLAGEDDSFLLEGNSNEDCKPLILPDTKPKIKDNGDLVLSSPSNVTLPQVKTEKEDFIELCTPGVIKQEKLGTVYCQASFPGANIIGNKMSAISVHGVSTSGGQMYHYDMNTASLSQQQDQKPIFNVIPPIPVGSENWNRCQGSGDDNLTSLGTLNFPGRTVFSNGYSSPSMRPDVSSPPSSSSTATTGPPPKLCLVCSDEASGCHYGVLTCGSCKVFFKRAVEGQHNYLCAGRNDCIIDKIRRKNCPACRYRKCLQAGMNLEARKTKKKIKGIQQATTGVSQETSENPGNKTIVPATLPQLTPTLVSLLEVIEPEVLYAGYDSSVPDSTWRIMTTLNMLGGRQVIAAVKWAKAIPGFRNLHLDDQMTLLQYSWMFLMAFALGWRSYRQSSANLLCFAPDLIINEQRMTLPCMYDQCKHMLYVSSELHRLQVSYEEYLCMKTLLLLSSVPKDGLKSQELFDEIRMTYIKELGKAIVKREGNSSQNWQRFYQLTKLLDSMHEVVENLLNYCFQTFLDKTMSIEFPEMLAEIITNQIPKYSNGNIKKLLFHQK
Format: functional.
Description: Activity at GR assessed as repression of TNFalpha and IL 1-beta induced E-selectin response

Test [3] addresses T4, Glucocorticoid receptor.
Description: Displacement of radiolabeled Dexamethasone from glucocorticoid receptor
Test [4] has as its target T4, Glucocorticoid receptor. Format: functional. This is another data set of the same source.
Description: Agonist activity at GR by GRE activation assay
Test [5] concerns the target T4, Glucocorticoid receptor. The class given is functional. This is another data set of the same source.
Description: Antagonist activity at GR assessed as inhibition of dexamethasone-induced GRE activation
The subject of a further test is Rattus norvegicus. The test is described as follows: Antiinflammatory activity against carrageenan-induced paw edema in rat assessed as paw volume at 30 mg/kg after 3 hrs. The class given is functional, organism-based. Details: dose 30 mg/kg. (The carrageenan paw model is a standard test of acute inflammation.)

As for `COc1c(O)ccc2c1-c1ccc3c(c1/C(=C/c1cccc(C)c1)O2)C(C)=CC(C)(C)N3`, the pKi (in general, the Ki on a negative log10 scale, so that one unit is a factor of ten) at Progesterone receptor is 6.40; on Androgen receptor, 6.24.
As for `COCOCc1cc(F)ccc1/C=C1\Oc2ccc(O)c(OC)c2-c2ccc3c(c21)C(C)=CC(C)(C)N3`, the pKi in test [1] was 6.37; on Progesterone receptor, 6.08; on Androgen receptor, 6.20.
For `COc1c(O)ccc2c1-c1ccc3c(c1/C(=C/c1ccc(F)cc1CO)O2)C(C)=CC(C)(C)N3`, the pKi was 5.96 in test [1], 6.01 on Progesterone receptor and 6.15 at Androgen receptor.
`COc1c(O)ccc2c1-c1ccc3c(c1/C(=C/c1cccc(O)c1)O2)C(C)=CC(C)(C)N3`: the negative-log IC50 (pIC50) (commonly −log10 of the IC50, conventionally taken in molar units) against Glucocorticoid receptor [2] is 8.96; at Glucocorticoid receptor [5], 8.33. Also, the pKi at Glucocorticoid receptor [3] was 8.85; in test [1], 6.54; at Progesterone receptor it was 6.12; on Androgen receptor, 6.04. Moreover, the pEC50 (commonly the negative decadic logarithm of the EC50, by convention in mol/L) at Glucocorticoid receptor [4] is 8.82.
For `COc1c(O)ccc2c1-c1ccc3c(c1/C(=C/c1cc(F)cc4c1OCOC4)O2)C(C)=CC(C)(C)N3`, in the test with Rattus norvegicus, the result was Active.
